In patent US20140274688A1, “MOLECULES HAVING CERTAIN PESTICIDAL UTILITIES, AND INTERMEDIATES, COMPOSITIONS, AND PROCESSES RELATED THERETO” (DOW AGROSCIENCES LLC, priority 2013, published 2014):

Assays:
[1] = test system: Cabbage Looper (Trichoplusia ni) ("CL"); test: Bioassay on Cabbage Looper (CL), 128-well diet tray assay, percent mortality; format: in vivo; conditions: for CL rating (percent mortality class): Cabbage Looper, 128-well diet tray assay; for pest or weed control at 50 µg/cm2: Trichoplusia ni, read-out: CL
Source text: (§1) Bioassays on Beet Armyworm (Spodoptera exigua) (“BAW”) and Cabbage Looper (Trichoplusia ni) (“CL”)
(§2) BAW has few effective parasites, diseases, or predators to lower its population. BAW infests many weeds, trees, grasses, legumes, and field crops. In various places, it is of economic concern upon asparagus, cotton, corn, soybeans, tobacco, alfalfa, sugar beets, peppers, tomatoes, potatoes, onions, peas, sunflowers, and citrus, among other plants. The Cabbage Looper is a member of the moth family Noctuidae. It is found throughout the world. It is attacks cabbage, cauliflower, broccoli, Brussel sprouts, tomatoes, cucumbers, potatoes, kale, turnips, mustard, peppers, eggplant, watermelons, melons, squash, cantaloupe, peas, beans, collards, lettuce, spinach, celery, parsley, beets, peas, alfalfa, soybeans, and cotton. This species is very destructive to plants due to its voracious consumption of leaves. In the case of cabbage, however, they feed not only on the wrapper leaves, but also may bore into the developing head. The larvae consume three times their weight in plant material daily. The feeding sites are marked by large accumulations of sticky, wet fecal material.
(§3) Consequently, because of the above factors control of these pests is important.
(§4) Certain molecules disclosed in this document were tested against BAW and CEW using procedures described in the following examples. In the reporting of the results, the “BAW & CL Rating Table” was used (See Table Section).
Bioassays on Cabbage Looper in CL
(§5) Trays were covered with a clear self-adhesive cover and held at 25° C., 14:10 light-dark for five to seven days. Percent mortality was recorded for the larvae in each well; activity in the eight wells was then averaged. The results are indicated in the table entitled “Table ABC: Biological Results” (See Table Section).

[2] = test system: Beet Armyworm (Spodoptera exigua) ("BAW"); test: Bioassay on Beet Armyworm (BAW), 128-well diet tray assay, percent mortality; format: in vivo; conditions: for BAW rating (percent mortality class): Beet Armyworm, 128-well diet tray assay
Source text: as §1, §2, §3, §4, §5

SMILES	CL rating (percent mortality class) [1]	BAW rating (percent mortality class) [2]	pest or weed control at 50 µg/cm2 [1] [%]	pest or weed control at 50 µg/cm2 ([2]; Spodoptera exigua, read-out: BAW) [%]
CC(C)c1ccccc1N1C(=O)CS/C1=N\C(=O)NCCc1ccc(-c2ncn(-c3ccc(OC(F)(F)F)cc3)n2)cc1 [F1, (Z)-1-(3-(2-isopropylphenyl)-4-oxothiazolidin-2-ylidene)-3-(4-(1-(4-(trifluoromethoxy)phenyl)-1H-1,2,4-triazol-3-yl)phenethyl)urea]	A (50-100)	A (50-100)		
CC(Cc1ccc(-c2ncn(-c3ccc(OC(F)(F)F)cc3)n2)cc1)NC(=O)NC(=S)Nc1ccccc1C(C)C (stereo not shown) [F4, N-[2-(propan-2-yl)phenyl]-N′-[1-(4-{1-[4-(trifluoromethoxy)phenyl]-1H-1,2,4-triazol-3-yl}phenyl)propan-2-yl]dicarbonimidothioic diamide]	A (50-100)	A (50-100)		
Cc1ccc(C(C)C)c(N2C(=O)CS/C2=N\C(=O)NC(C)Cc2ccc(-c3ncn(-c4ccc(OC(F)(F)F)cc4)n3)cc2)c1 (stereo not shown) [F8, (Z)-1-(3-(2-isopropyl-5-methylphenyl)-4-oxothiazolidin-2-ylidene)-3-(1-(4-(1-(4-(trifluoromethoxy)phenyl)-1H-1,2,4-triazol-3-yl)phenyl)propan-2-yl)urea]	A (50-100)	A (50-100)		
CC(C)c1ccccc1NC(=S)NC(=O)N/C=C/c1ccc(-c2ncn(-c3ccc(OC(F)(F)F)cc3)n2)cc1 [F11, N-[2-(propan-2-yl)phenyl]-N′-[(E)-2-(4-{1-[4-(trifluoromethoxy)phenyl]-1H-1,2,4-triazol-3-yl}phenyl)ethenyl]dicarbonimidothioic diamide]	A (50-100)	A (50-100)		
CC(C)c1ccccc1N1C(=O)CS/C1=N\C(=O)N/C=C/c1ccc(-c2ncn(-c3ccc(OC(F)(F)F)cc3)n2)cc1 [F12]	A (50-100)	A (50-100)		
C/C(=C\NC(=O)/N=C1\SCC(=O)N1c1ccccc1C(C)C)c1ccc(-c2ncn(-c3ccc(OC(F)(F)F)cc3)n2)cc1 [F13]	A (50-100)	A (50-100)		
CC(C)c1ccccc1NC(=S)NC(=O)NCc1ccc(-c2ncn(-c3ccc(OC(F)(F)C(F)(F)F)cc3)n2)cc1 [F15, N-(4-{1-[4-(pentafluoroethoxy)phenyl]-1H-1,2,4-triazol-3-yl}benzyl)-N′-[2-(propan-2-yl)phenyl]dicarbonimidothioic diamide]	A (50-100)	A (50-100)		
Cc1ccc(C(C)C)c(NC(=S)NC(=O)NCc2ccc(-c3ncn(-c4ccc(OC(F)(F)C(F)(F)F)cc4)n3)cc2)c1 [F16, N-[5-methyl-2-(propan-2-yl)phenyl]-N′-(4-{1-[4-(pentafluoroethoxy)phenyl]-1H-1,2,4-triazol-3-yl}benzyl)dicarbonimidothioic diamide]	A (50-100)	A (50-100)		
CC(C)c1ccccc1N1C(=O)CS/C1=N\C(=O)NCc1ccc(-c2ncn(-c3ccc(OC(F)(F)F)cc3)n2)cc1 [F17, (Z)-1-(3-(2-isopropylphenyl)-4-oxothiazolidin-2-ylidene)-3-(4-(1-(4-(trifluoromethoxy)phenyl)-1H-1,2,4-triazol-3-yl)benzyl)urea]	A (50-100)	A (50-100)		
CC(C)c1ccccc1N1C(=O)CS/C1=N\C(=O)NCc1ccc(-c2ncn(-c3ccc(OC(F)(F)C(F)(F)F)cc3)n2)cc1 [F18, (Z)-1-(3-(2-isopropylphenyl)-4-oxothiazolidin-2-ylidene)-3-(4-(1-(4-(perfluoroethoxy)phenyl)-1H-1,2,4-triazol-3-yl)benzyl)urea]	A (50-100)	A (50-100)		
Cc1ccc(C(C)C)c(N2C(=O)CS/C2=N\C(=O)NCc2ccc(-c3ncn(-c4ccc(OC(F)(F)C(F)(F)F)cc4)n3)cc2)c1 [F19, (Z)-1-(3-(2-isopropyl-5-methylphenyl)-4-oxothiazolidin-2-ylidene)-3-(4-(1-(4-(perfluoroethoxy)phenyl)-1H-1,2,4-triazol-3-yl)benzyl)urea]	A (50-100)	A (50-100)		
CC(C)c1ccccc1NC(=S)NC(=O)NC1CC1c1ccc(-c2ncn(-c3ccc(OC(F)(F)F)cc3)n2)cc1 (stereo not shown) [F22, N-[2-(propan-2-yl)phenyl]-N′-[2-(4-{1-[4-(trifluoromethoxy)phenyl]-1H-1,2,4-triazol-3-yl}phenyl)cyclopropyl]dicarbonimidothioic diamide]	A (50-100)	A (50-100)		
CCCc1ccccc1NC(=S)NC(=O)NC1CC1c1ccc(-c2ncn(-c3ccc(OC(F)(F)F)cc3)n2)cc1 (stereo not shown) [F23]	A (50-100)	A (50-100)		
CCc1cccc(C)c1NC(=S)NC(=O)NC1CC1c1ccc(-c2ncn(-c3ccc(OC(F)(F)F)cc3)n2)cc1 (stereo not shown) [F24, N-(2-ethyl-6-methylphenyl)-N′-[2-(4-{1-[4-(trifluoromethoxy)phenyl]-1H-1,2,4-triazol-3-yl}phenyl)cyclopropyl]dicarbonimidothioic diamide]	A (50-100)	A (50-100)		
Cc1cccc(C)c1NC(=S)NC(=O)NC1CC1c1ccc(-c2ncn(-c3ccc(OC(F)(F)F)cc3)n2)cc1 (stereo not shown) [F25]	A (50-100)	A (50-100)		
COc1ccc(NC(=S)NC(=O)NC2CC2c2ccc(-c3ncn(-c4ccc(OC(F)(F)F)cc4)n3)cc2)c(C)c1 (stereo not shown) [F26]	A (50-100)	A (50-100)		
Cc1ccc(C(C)C)c(NC(=S)NC(=O)NCc2ccc(-c3ncn(-c4ccc(OC(F)(F)F)cc4)n3)cc2)c1 [F35, N-[5-methyl-2-(propan-2-yl)phenyl]-N′-(4-{1-[4-(trifluoromethoxy)phenyl]-1H-1,2,4-triazol-3-yl}benzyl)dicarbonimidothioic diamide]		A (50-100)		
Cc1ccc(-n2c(C)cs/c2=N\C(=O)NCc2ccc(-c3ncn(-c4ccc(OC(F)(F)F)cc4)n3)cc2)c(C(C)C)c1 [P20, (Z)-1-(3-(2-isopropyl-4-methylphenyl)-4-methylthiazol-2(3H)-ylidene)-3-(4-(1-(4-(trifluoromethoxy)phenyl)-1H-1,2,4-triazol-3-yl)benzyl)urea]			50 to 100	
Cc1ccc(C(C)C)c(N2C(=O)CS/C2=N\C(=O)NCCc2cccc(-c3ncn(-c4ccc(OC(F)(F)F)cc4)n3)c2)c1 [P81, (Z)-1-(3-(2-isopropyl-5-methylphenyl)-4-oxothiazolidin-2-ylidene)-3-(3-(1-(4-(trifluoromethoxy)phenyl)-1H-1,2,4-triazol-3-yl)phenethyl)urea]			50 to 100	
Cc1cccc(C)c1N1C(=O)CS/C1=N\C(=O)NCCCCc1ccc(-c2ncn(-c3ccc(OC(F)(F)F)cc3)n2)cc1 [P152, (Z)-1-(3-(2,6-dimethylphenyl)-4-oxothiazolidin-2-ylidene)-3-(4-(4-(1-(4-(trifluoromethoxy)phenyl)-1H-1,2,4-triazol-3-yl)phenyl)butyl)urea]			50 to 100	
CCc1cccc(C)c1N1C(=O)CS/C1=N\C(=O)NCCCCc1ccc(-c2ncn(-c3ccc(OC(F)(F)F)cc3)n2)cc1 [P153, (Z)-1-(3-(2-ethyl-6-methylphenyl)-4-oxothiazolidin-2-ylidene)-3-(4-(4-(1-(4-(trifluoromethoxy)phenyl)-1H-1,2,4-triazol-3-yl)phenyl)butyl)urea]			50 to 100	
Cc1ccccc1N1C(=O)CS/C1=N\C(=O)NCCCCc1cccc(-c2ncn(-c3ccc(OC(F)(F)F)cc3)n2)c1 [P170, (Z)-1-(4-oxo-3-(o-tolyl)thiazolidin-2-ylidene)-3-(4-(3-(1-(4-(trifluoromethoxy)phenyl)-1H-1,2,4-triazol-3-yl)phenyl)butyl)urea]			50 to 100	
Cc1ccc(N2C(=O)CS/C2=N\C(=O)NCCCCc2cccc(-c3ncn(-c4ccc(OC(F)(F)F)cc4)n3)c2)c(C(C)C)c1 [P180, (Z)-1-(3-(2-isopropyl-4-methylphenyl)-4-oxothiazolidin-2-ylidene)-3-(4-(3-(1-(4-(trifluoromethoxy)phenyl)-1H-1,2,4-triazol-3-yl)phenyl)butyl)urea]			50 to 100	
CCC(CNC(=O)/N=C1\SCC(=O)N1c1ccc(F)cc1C(C)C)c1ccc(-c2ncn(-c3ccc(OC(F)(F)F)cc3)n2)cc1 (stereo not shown) [P1163, (Z)-1-(3-(4-fluoro-2-isopropylphenyl)-4-oxothiazolidin-2-ylidene)-3-(2-(4-(1-(4-(trifluoromethoxy)phenyl)-1H-1,2,4-triazol-3-yl)phenyl)butyl)urea]				50 to 100
